Measured values from patent US20200339953A1, “HEMATOPOIETIC STEM AND PROGENITOR CELL THERAPY” (priority 2010, published 2020).

What was measured:
CD34^+ cells = assay: Competitive cAMP assay (LANCE cAMP detection kit); assay type: cell-based, human
Method: The cAMP assay was performed on CD34^+ cells using the LANCE® cAMP detection kit (Perkin Elmer Inc., Waltham, Mass.) according to the manufacturer's instructions. Briefly, 3,000 CD34^+ cells (Stem Cell Technologies, Vancouver, Canada) were aliquoted in each well of a 384-well opaque white plate in the recommended stimulation buffer. Assays were performed in triplicate for all conditions.
CD34^+ cells were placed on ice prior to being stimulated with DMSO or 16,16-dimethyl PGE2 at 4° C. For assays conducted at other temperatures, e.g., 25° C. or 37° C., DMSO or 16,16-dimethyl PGE2 was added to CD34^+ cells at room temperature and then the plates were incubated with DMSO or 16,16-dmPGE2 at the experimental temperature (25° C. or 37° C.).
CD34^+ cells were incubated for periods of 5, 15, 30, 60 or 120 minutes. Following the incubation period, detection buffer was added to the stimulated cells and cells were incubated for an additional 1 hour at room temperature in detection buffer, regardless of stimulation temperature. The assay plates were analyzed using an EnVision® 2104 Multilabel Reader (Perkin Elmer) according to the manufacturer's instructions.
A competitive cAMP assay was performed using CD34^+ cells to determine the effects of time (incubation for 15, 30, 60, or 120 minutes), temperature (incubation at 4° C., 25° C., or 37° C.), and final 16,16-dimethyl PGE2 concentration (1 μM, 10 μM, 50 μM, or 100 μM) on cAMP production in the cells.

human CD34^+ cells = assay: Microfluidic qPCR using the Fluidigm platform (signature genes of Table 3); assay type: cell-based; conditions: 37° C.
Method: Real-time PCR transcript quantitation from 16,16-dimethyl PGE2 ex vivo treated CD34+ cell samples was performed using the BioMark Dynamic Array microfluidics system (Fluidigm Corporation, South San Francisco, Calif., USA). Total RNA was isolated from treated cells using Pico Pure RNA Isolation Kit (Molecular Devices, Sunnyvale, Calif., USA). Complimentary DNA (cDNA) was reverse transcribed from 50 ng of isolated total RNA using the High-Capacity cDNA Reverse Transcription Kit (Life Technologies Corporation, Carlsbad, Calif., USA).
cDNA was pre-amplified for specific target genes (96) using a 200 nM mixture of 96 gene specific primer pairs (see Table 1), including 6 reference control genes using the TaqMan PreAmp Master Mix Kit (Life Technologies) protocol. Specific target amplification (STA) from cDNA was performed using 14 cycles of amplification with the standard cycling conditions using the manufacturer's protocol. EvaGreen dye (Biotium, Inc. Hayward, Calif., USA) was added according to Fluidigm's EvaGreen protocol to detect amplified products. For samples, the reaction mix contained 3.0 μL Gene Expression Master Mix (Life Tech.), 0.3 μL Sample Loading Buffer (Fluidigm), 0.3 μL 20× EvaGreen dye (Biotium, Inc.), 1.5 μL diluted (1:5 sterile nH2O) STA cDNA, and 0.9 μL sterile diH2O for loading into the sample inlets of the 96.96 Dynamic Array (Fluidigm).
Samples were run in replicates, from 5 to 9 wells. For primer pairs, the reaction mix contained 2.5 μL Gene Specific Primer pairs (20 μM) and 2.5 μL Assay Loading Buffer (Fluidigm) for loading into the assay inlets on the 96.96 Dynamic Array (Fluidigm). 96.96 Dynamic arrays were loaded using a NanoFlex IFC Controller HX (Fluidigm) and real-time reactions were performed using a BioMark Real-Time PCR System (Fluidigm).
Results were analyzed using BioMark Real-Time PCR Analysis software. Average Cts were calculated from the sample replicates and delta-delta Cts (ΔΔCt) were calculated using the mean of 6 reference genes (ACTB, GAPDH, HPRT1, QARS, ARPC2 and LRIG2) against a vehicle only sample. Cts above 28 or amplified products with inappropriate melting curve properties were excluded from the calculations.
A microfluidic qPCR platform was also used to measure expression changes of a 16,16-dimethyl PGE2 gene expression signature of the genes listed in Table 3 in human CD34^+ cells at different incubation times.
Further, gene expression signatures were measured on cells that received short pulse treatments with 16,16-dimethyl PGE2 followed by a recovery period in the absence of the drug. Human CD34^+ cells were incubated for different times in the presence of 16,16-dimethyl PGE2 followed by a wash and recovery period in media designed to reflect the in vivo setting. The experimental design matched the ex vivo treatment paradigm where cells are treated, washed to remove the drug and then administered to the patient. CD34^+ cells were incubated with 16,16-dimethyl PGE2 at 37° C. for 5, 15, 30, 60, or 120 minutes and the gene expression signatures were analyzed. For incubation periods less than 120 minutes, the cells were washed in media to remove the 16,16-dimethyl PGE2 and then the cells were incubated for the remaining period in media to allow time for gene expression to take place.

In the case of `CCCCC(C)(C)[C@H](O)/C=C/[C@H]1[C@H](O)CC(=O)[C@@H]1C/C=C\CCCC(=O)O` [16,16-dimethyl PGE2], the “cAMP production compared to DMSO controls” value (CD34^+ cells; 4° C., 1, 10, 50 and 100 μM, p>0.05) was “No statistically significant increase”, the “time in which the cAMP response reached maximal levels” value (CD34^+ cells; 37° C.) was 15 min and the “cAMP activity compared to DMSO control” value (CD34^+ cells; 37° C. and 25° C., 5 min up to 2 hours, 1, 10, 50 and 100 μM, p<0.001) was “statistically significant increase”. The “threshold concentration above which the cAMP response was relatively dose-insensitive” value (CD34^+ cells; CD34+ cells) was 10 µM, the “incubation time of maximal cAMP response” value (CD34^+ cells; CD34+ cells, FIG. 3) was 30 to 60 min and the “pulse incubation giving maximal gene expression changes” value (human CD34^+ cells; 10 μM) was “about 2 hours”. The “constant exposure after which suitable gene expression signatures were detectable” value (human CD34^+ cells; 10 μM, FIG. 14A) was “at least 60 minutes”, the “constant exposure giving maximal gene expression response” value (human CD34^+ cells; 10 μM, FIG. 14A-B) was “after at least about two hours” and the “pulse incubation after which recognizable gene expression signatures were observed” value (human CD34^+ cells; 10 μM, recovery to 120 minutes total) was “about 30 minutes”. For the same compound, the “gene expression response to short pulse treatments (5-15 minutes)” value (human CD34^+ cells; 10 μM, recovery to 120 minutes total, FIGS. 15A-15B) was “not sufficient” and the “concentration at which the gene expression signature was maximal” value (human CD34^+ cells; 2 hours, FIGS. 16A-16B) was 10 µM.
